From US20260207623A1, “USE OF ESTETROL IN HEPATICALLY IMPAIRED PATIENTS” (ESTETRA SRL, priority 2022, published 2026)

How the values were obtained:
[1] = test system: C-Terminal Telopeptide (CTX-1); assay: Example 2 section F: C-terminal telopeptide (CTX-1), marker of bone resorption, at 15 mg and 20 mg daily doses; format: in vivo, human
Method: In order to better assess the potential for increasing the daily dose beyond the minimum effective dose of 15 mg estetrol monohydrate daily, a number of parameters were followed in a study where estetrol monohydrate was administered at the increased dose of 20 mg per day.
6. C-Terminal Telopeptide (CTX-1) (Ng/L)
CTX-1 is a specific marker of bone resorption.

[2] = test system: female subjects with normal hepatic function, mild, moderate or severe hepatic impairment; assay: Safety and tolerability (TEAEs, clinical laboratory, vital signs, physical examination) after a single oral dose of 20 mg E4 monohydrate in the hepatic impairment study; format: in vivo, human; conditions: single oral 20 mg
Method: This was a Phase 1, multi-centre, open-label, PK, and safety study of a single oral dose of 20 mg E4 monohydrate in female subjects with normal hepatic function (Group 1), mild hepatic impairment (Group 2), moderate hepatic impairment (Group 3), and severe hepatic impairment (Group 4), as defined using the Child-Pugh classification at Screening.
Safety and tolerability assessments consisted of treatment-emergent AEs (TEAEs), clinical laboratory, vital signs, physical examination, and gynecological examination. Assessments were performed in accordance with Table 2 and Table 3 in Section 2.5.1.
AEs/TEAEs were recorded after signing of the ICF until completion of the follow up visit. Any clinically significant observations in results of clinical laboratory, vital signs, or physical examinations were recorded as AEs.
A TEAE is defined as any event not present prior to administration of the study drug or any event already present that worsens in either severity or frequency following exposure to the study drug.
The below listed tests were to be performed by the local laboratories at time points indicated in the Schedule of Assessments (Table 2).
Systolic and diastolic blood pressure and pulse were recorded after the subject had been resting for at least 5 minutes in the supine position at time points indicated in the Schedule of Assessments (Table 2). These assessments were made using an automated device. Body temperature and respiratory rate were measured subsequently.
A complete physical examination consisting of a review of all body systems was performed at time points indicated in the Schedule of Assessments (Table 2). A symptom-directed physical examination could be conducted at any time per Investigator's discretion.
2.6.2.2 Evaluation of Safety and Tolerability Safety and tolerability were assessed through TEAEs, clinical laboratory, vital signs, and physical examination findings, and any other parameter that was relevant for safety assessment.
A listing of all individual AEs is provided. Summary tables of TEAEs are presented by system organ class (SOC) based on the MedDRA terminology list (preferred terms): a table containing the number of subjects experiencing AEs by hepatic function, a table containing the number of subjects experiencing SAEs by hepatic function (if applicable), a table by hepatic function and relationship, and a table by hepatic function and severity.

[3] = Mild hepatic impairment (N = 8)
[4] = Moderate hepatic impairment (N = 8)
[5] = Normal hepatic function (N = 8)

C[C@]12CC[C@@H]3c4ccc(O)cc4CC[C@H]3[C@@H]1[C@@H](O)[C@@H](O)[C@@H]2O [E4 monohydrate, estetrol monohydrate]
2 (25.0) n (%): TEAE by severity: Hypertension, severity Mild [2, 3] | TEAE by severity: Vascular disorders, severity Mild [2, 3] | TEAE: Hypertension [2, 3] | TEAE: Total Subjects with at Least One TEAE [2, 3] | TEAE: Vascular disorders [2, 3] | TEAE by severity: Diarrhea, severity Mild [2, 4] | TEAE by severity: Gastrointestinal disorders, severity Mild [2, 4] | TEAE: Diarrhea [2, 4] | TEAE: Gastrointestinal disorders [2, 4] | TEAE: Headache [2, 4] | TEAE: Nervous system disorders [2, 4] | TEAE by severity: Gastrointestinal disorders, severity Moderate [2, 5]
1 (12.5) n (%): TEAE by severity: Haemarthrosis, severity Mild [2, 3] | TEAE by severity: Musculoskeletal and connective tissue disorders, severity Mild [2, 3] | TEAE: Haemarthrosis [2, 3] | TEAE: Musculoskeletal and connective tissue disorders [2, 3] | TEAE by severity: General disorders and administration site conditions, severity Mild [2, 4] | TEAE by severity: Headache, severity Mild [2, 4] | TEAE by severity: Headache, severity Moderate [2, 4] | TEAE by severity: Musculoskeletal and connective tissue disorders, severity Mild [2, 4] | TEAE by severity: Nervous system disorders, severity Mild [2, 4] | TEAE by severity: Nervous system disorders, severity Moderate [2, 4] | TEAE by severity: Pain in extremity, severity Mild [2, 4] | TEAE by severity: Pyrexia, severity Mild [2, 4] | TEAE: General disorders and administration site conditions [2, 4] | TEAE: Musculoskeletal and connective tissue disorders [2, 4] | TEAE: Pain in extremity [2, 4] | TEAE: Pyrexia [2, 4] | TEAE by severity: Back pain, severity Moderate [2, 5] | TEAE by severity: Diarrhea, severity Moderate [2, 5] | TEAE by severity: Musculoskeletal and connective tissue disorders, severity Moderate [2, 5] | TEAE by severity: Pancreatitis, severity Moderate [2, 5]
4 (50.0) n (%): TEAE: Total Subjects with at Least One TEAE [2, 4]
0 (0.0) n (%): TEAE by severity: Back pain, severity Mild [2, 3] | TEAE by severity: Back pain, severity Moderate [2, 3] | TEAE by severity: Diarrhea, severity Mild [2, 3] | TEAE by severity: Diarrhea, severity Moderate [2, 3] | TEAE by severity: Gastrointestinal disorders, severity Mild [2, 3] | TEAE by severity: Gastrointestinal disorders, severity Moderate [2, 3] | TEAE by severity: General disorders and administration site conditions, severity Mild [2, 3] | TEAE by severity: Headache, severity Mild [2, 3] | TEAE by severity: Headache, severity Moderate [2, 3] | TEAE by severity: Musculoskeletal and connective tissue disorders, severity Moderate [2, 3] | TEAE by severity: Nervous system disorders, severity Mild [2, 3] | TEAE by severity: Nervous system disorders, severity Moderate [2, 3] | TEAE by severity: Pain in extremity, severity Mild [2, 3] | TEAE by severity: Pancreatitis, severity Moderate [2, 3] | TEAE by severity: Pyrexia, severity Mild [2, 3] | TEAE by severity: Renal and urinary disorders, severity Mild [2, 3] | TEAE by severity: Renal impairment, severity Mild [2, 3] | TEAE: Back pain [2, 3] | TEAE: Diarrhea [2, 3] | TEAE: Gastrointestinal disorders [2, 3] | TEAE: General disorders and administration site conditions [2, 3] | TEAE: Headache [2, 3] | TEAE: Nervous system disorders [2, 3] | TEAE: Pain in extremity [2, 3] | TEAE: Pancreatitis [2, 3] | TEAE: Pyrexia [2, 3] | TEAE: Renal and urinary disorders [2, 3] | TEAE: Renal impairment [2, 3] | TEAE by severity: Back pain, severity Mild [2, 4] | TEAE by severity: Back pain, severity Moderate [2, 4] | TEAE by severity: Diarrhea, severity Moderate [2, 4] | TEAE by severity: Gastrointestinal disorders, severity Moderate [2, 4] | TEAE by severity: Haemarthrosis, severity Mild [2, 4] | TEAE by severity: Hypertension, severity Mild [2, 4] | TEAE by severity: Musculoskeletal and connective tissue disorders, severity Moderate [2, 4] | TEAE by severity: Pancreatitis, severity Moderate [2, 4] | TEAE by severity: Renal and urinary disorders, severity Mild [2, 4] | TEAE by severity: Renal impairment, severity Mild [2, 4] | TEAE by severity: Vascular disorders, severity Mild [2, 4] | TEAE: Back pain [2, 4] | TEAE: Haemarthrosis [2, 4] | TEAE: Hypertension [2, 4] | TEAE: Pancreatitis [2, 4] | TEAE: Renal and urinary disorders [2, 4] | TEAE: Renal impairment [2, 4] | TEAE: Vascular disorders [2, 4] | TEAE by severity: Back pain, severity Mild [2, 5] | TEAE by severity: Diarrhea, severity Mild [2, 5] | TEAE by severity: Gastrointestinal disorders, severity Mild [2, 5] | TEAE by severity: General disorders and administration site conditions, severity Mild [2, 5] | TEAE by severity: Haemarthrosis, severity Mild [2, 5] | TEAE by severity: Headache, severity Mild [2, 5] | TEAE by severity: Headache, severity Moderate [2, 5] | TEAE by severity: Hypertension, severity Mild [2, 5] | TEAE by severity: Musculoskeletal and connective tissue disorders, severity Mild [2, 5] | TEAE by severity: Nervous system disorders, severity Mild [2, 5] | TEAE by severity: Nervous system disorders, severity Moderate [2, 5] | TEAE by severity: Pain in extremity, severity Mild [2, 5] | TEAE by severity: Pyrexia, severity Mild [2, 5] | TEAE by severity: Renal and urinary disorders, severity Mild [2, 5]
small decrease of bone resorption: bone resorption (CTX-1) ([1]; 15 mg daily dose)
more pronounced: bone resorption (CTX-1) ([1]; 20 mg daily dose, after 28 days of treatment, compared with 15 mg)
